Experimental data published in US11912668B2, “GCN2 and perk kinase inhibitors and methods of use thereof” (Deciphera Pharmaceuticals, LLC, priority 2020, dated 2024).

Legend:
PERK kinase = PERK kinase (Homo sapiens (Human), UniProt Q9NZJ5); assay: Biochemical assay for PERK (coupled pyruvate kinase/lactate dehydrogenase assay); settings: 1 mM ATP, rate from 2-3 h time frame
Description: Activity of PERK kinase was determined spectroscopically using a coupled pyruvate kinase/lactate dehydrogenase assay that continuously monitors the ATP hydrolysis-dependent oxidation of NADH (e.g., Schindler et al. Science (2000) 289: 1938-1942). Assays were conducted in 384-well plates (100 μL final volume) using 10 nM PERK (from Beryllium), 0.25 mg/mL Myelin Basic Protein substrate, 1.5 units pyruvate kinase, 2.1 units lactate dehydrogenase, 1 mM phosphoenol pyruvate, 0.28 mM NADH and 1 mM ATP in assay buffer (100 mM Tris, pH 7.5, 15 mM MgCl2, 0.5 mM DTT, 0.004% (w/v) BSA, and 0.004% Triton X-100). Inhibition of PERK was measured by adding serial diluted test compound (final assay concentration of 1% DMSO). A decrease in absorption at 340 nm was monitored continuously for 6 hours at 30° C. on a multi-mode microplate reader (BioTek). The reaction rate was calculated using the 2-3 h time frame. The reaction rate at each concentration of compound was converted to percent inhibition using controls (i.e. reaction with no test compound and reaction with a known inhibitor) and IC50 values were calculated using software routines in Prism (GraphPad software).

[1] = test system: phospho-GCN2 (Thr899) in HCT116 colorectal cancer cells; assay: HCT116 amino acid starved (-AA) phospho-GCN2 assay (Western blot); type: cell-based; settings: Homo sapiens, HCT-116, 4 h, read-out: HCT116-AA pGCN2 Western Blot
Description: (§1) HCT116 colorectal cancer cells (catalog #CCL-247) were obtained from the American Type Culture Collect (ATTC, Manassas, VA). Briefly, cells were grown in RPMI 1640 supplemented with 10% heat inactivated fetal bovine serum (Invitrogen, Carlsbad, CA) and 1% Penicillin/Streptomycin/L-Glutamine at 37° C., 5% CO2, and 95% humidity. Cells were expanded until reaching 70-95% confluency at which point they were subcultured or harvested for assay use. Cells were seeded in 12-well culture plate at five hundred thousand cells per well in 1 mL complete growth medium and incubated overnight at 37° C., 5% CO2, and 95% humidity. The next day each well was replaced with 1 mL Earle's Balanced Salt Solution (EBSS, Invitrogen, Carlsbad, CA) supplemented with 10% Dialyzed Fetal Bovine Serum, 5.5 mM Glucose, 1% Penicillin/Streptomycin and 1% Vitamin solution (thermo #11120052). A serial dilution of test compound was dispensed into well. Plates were incubated for 4 h at 37° C., 5% CO2, and 95% humidity. At the end of the incubation, cells were washed with PBS supplemented with 1× Halt protease inhibitor, 1× Halt phosphatase inhibitor, 1× Sigma phosphatase inhibitor cocktail 2 and 1×EDTA and then lysed with M-PER Mammalian Protein Extraction Reagent supplemented with 3× of the inhibitor mix as described above. Cell lysates were sonicated with water bath sonicator (Qsonica, Newtown, CT) and supernatants were boiled with SDS buffer and reducing agent. Western blot was performed on each lysate to quantify phospho-GCN2 (Thr899), total GCN2, ATF4 and beta-Actin. Membranes were imaged with LI-COR Odyssey CLx Imaging System (LI-COR, Lincoln, NE). Data were analyzed using GraphPad Prism software (GraphPad, San Diego, CA) to calculate IC50 values.

CCRF-CEM leukemia cells = assay: CCRF-CEM ASNase cell proliferation assay, phenotypic assay for cellular inhibition of GCN2; type: cell-based; settings: Homo sapiens; ASNase treated CCRF-CEM cells, 1 mU/mL ASNase, 72 h
Description: CCRF-CEM leukemia cells (catalog #CCL-116) were obtained from the American Type Culture Collect (ATTC, Manassas, VA). Cells were grown in RPMI-1640 medium supplemented with 10% heat-inactivated fetal bovine serum (Invitrogen, Carlsbad, CA) and 1% Penicillin/Streptomycin/L-Glutamine at 37° C., 5% CO2, and 95% humidity. Cells were expanded until reaching one million cells per mL at which time they are subcultured or harvested for assay use. Ten thousand cells per well in 200 μL RPMI-1640 supplemented with 10% heat-inactivated fetal bovine serum and 1% Penicillin/Streptomycin were dispensed into a 96-well black clear bottom plate. A serial dilution of test compound and 1 mU/mL ASNase was added in triplicate and plates were incubated for 72 h at 37° C., 5% CO2, and 95% humidity. At the end of the incubation, 40 μL of a […] solution of resazurin (Sigma, St. Louis, MO) in PBS was added to each well of the plate and plates were incubated for an additional 6 h at 37° C., 5% CO2, and 95% humidity. Plates were read on a Synergy2 or equivalent reader (Biotek, Winooski VT) using an excitation of 540 nm and an emission of 600 nm. Data was analyzed using GraphPad Prism software (GraphPad, San Diego, CA) to calculate IC50 values.

[2] = test system: ATF4 in HCT116 colorectal cancer cells; assay: HCT116 amino acid starved (-AA) ATF4 assay (Western blot); type: cell-based; settings: Homo sapiens, HCT-116, 4 h
Description: as §1

GCN2 kinase = GCN2 kinase (Homo sapiens (Human), UniProt Q9P2K8); assay: Biochemical assay for GCN2 (TR-FRET kinase activity assay); settings: 1 mM ATP, 3-hour incubation
Description: Activity of GCN2 kinase was determined using a TR-FRET kinase activity assay (e.g. Riddle et al. Analytical Biochemistry (2006) 356(1) 108-116). Assays were conducted in 384-well plates (13 μL assay volume) using 2 nM GCN2 (Carna Biosciences), 130 nM GFP-EIf2α (Invitrogen), 0.2 mg/mL E. coli tRNA (sigma) and 1 mM ATP in kinase buffer (Invitrogen). Inhibition of GCN2 was measured by adding serial diluted test compound (final assay concentration of 0.5% DMSO) followed by a 3-hour incubation. Tb-peIF2α (pSer52) antibody (Invitrogen) (2 nM final assay concentration) in kinase buffer containing ETDA (final assay concentration of 20 mM) was added. After a 60 min incubation at room temperature, TR-FRET was monitored using an excitation wavelength of 340 nm and emission wavelengths of 490 nm and 520 nm. The emission ratio (520/490) at each compound concentration of was converted to percent inhibition using controls (i.e. reaction with no test compound and reaction with a known inhibitor) and IC50 values were calculated by fitting a four-parameter sigmoidal curve to the data using Prism (GraphPad software).

[3] = test system: ATF4 in CCRF-CEM leukemia cells (PERK); assay: CCRF-CEM TG ATF4 ELISA, phenotypic assay for cellular inhibition of PERK preactivated by thapsigargin; type: cell-based; settings: Homo sapiens; Thapsigargin (1 μM) stimulated CCRF-CEM cells
Description: CCRF-CEM leukemia cells (catalog #CCL-116) were obtained from the American Type Culture Collection (ATTC, Manassas, VA). Briefly, cells were grown in RPMI-1640 medium supplemented with 10% heat-inactivated fetal bovine serum (Invitrogen, Carlsbad, CA) and 1% Penicillin/Streptomycin/L-Glutamine at 37° C., 5% CO2, and 95% humidity. Cells were expanded until reaching one million cells per mL at which time they were subcultured or harvested for assay use. One million five hundred thousand cells per well in 1 mL complete growth medium were dispensed into 12-well plates and incubated overnight. A serial dilution of test compound was added and cells were incubated at 37° C., 5% CO2, and 95% for three hours, then 1 μM thapsigargin was added and cells were incubated for an additional hour at 37° C., 5% CO2, and 95%. Cells were lysed then ATF4 levels were measured using an ELISA assay (Proteintech, Rosemont, IL). Absorbance was measured at 450 nm and 544 nM using a Synergy2 or equivalent reader (Biotek, Winooski VT). Data was analyzed using PRISM software (Graphpad, San Diego, CA) to calculate IC50 values.

Sequence of GCN2 kinase (Q9P2K8 whole entry): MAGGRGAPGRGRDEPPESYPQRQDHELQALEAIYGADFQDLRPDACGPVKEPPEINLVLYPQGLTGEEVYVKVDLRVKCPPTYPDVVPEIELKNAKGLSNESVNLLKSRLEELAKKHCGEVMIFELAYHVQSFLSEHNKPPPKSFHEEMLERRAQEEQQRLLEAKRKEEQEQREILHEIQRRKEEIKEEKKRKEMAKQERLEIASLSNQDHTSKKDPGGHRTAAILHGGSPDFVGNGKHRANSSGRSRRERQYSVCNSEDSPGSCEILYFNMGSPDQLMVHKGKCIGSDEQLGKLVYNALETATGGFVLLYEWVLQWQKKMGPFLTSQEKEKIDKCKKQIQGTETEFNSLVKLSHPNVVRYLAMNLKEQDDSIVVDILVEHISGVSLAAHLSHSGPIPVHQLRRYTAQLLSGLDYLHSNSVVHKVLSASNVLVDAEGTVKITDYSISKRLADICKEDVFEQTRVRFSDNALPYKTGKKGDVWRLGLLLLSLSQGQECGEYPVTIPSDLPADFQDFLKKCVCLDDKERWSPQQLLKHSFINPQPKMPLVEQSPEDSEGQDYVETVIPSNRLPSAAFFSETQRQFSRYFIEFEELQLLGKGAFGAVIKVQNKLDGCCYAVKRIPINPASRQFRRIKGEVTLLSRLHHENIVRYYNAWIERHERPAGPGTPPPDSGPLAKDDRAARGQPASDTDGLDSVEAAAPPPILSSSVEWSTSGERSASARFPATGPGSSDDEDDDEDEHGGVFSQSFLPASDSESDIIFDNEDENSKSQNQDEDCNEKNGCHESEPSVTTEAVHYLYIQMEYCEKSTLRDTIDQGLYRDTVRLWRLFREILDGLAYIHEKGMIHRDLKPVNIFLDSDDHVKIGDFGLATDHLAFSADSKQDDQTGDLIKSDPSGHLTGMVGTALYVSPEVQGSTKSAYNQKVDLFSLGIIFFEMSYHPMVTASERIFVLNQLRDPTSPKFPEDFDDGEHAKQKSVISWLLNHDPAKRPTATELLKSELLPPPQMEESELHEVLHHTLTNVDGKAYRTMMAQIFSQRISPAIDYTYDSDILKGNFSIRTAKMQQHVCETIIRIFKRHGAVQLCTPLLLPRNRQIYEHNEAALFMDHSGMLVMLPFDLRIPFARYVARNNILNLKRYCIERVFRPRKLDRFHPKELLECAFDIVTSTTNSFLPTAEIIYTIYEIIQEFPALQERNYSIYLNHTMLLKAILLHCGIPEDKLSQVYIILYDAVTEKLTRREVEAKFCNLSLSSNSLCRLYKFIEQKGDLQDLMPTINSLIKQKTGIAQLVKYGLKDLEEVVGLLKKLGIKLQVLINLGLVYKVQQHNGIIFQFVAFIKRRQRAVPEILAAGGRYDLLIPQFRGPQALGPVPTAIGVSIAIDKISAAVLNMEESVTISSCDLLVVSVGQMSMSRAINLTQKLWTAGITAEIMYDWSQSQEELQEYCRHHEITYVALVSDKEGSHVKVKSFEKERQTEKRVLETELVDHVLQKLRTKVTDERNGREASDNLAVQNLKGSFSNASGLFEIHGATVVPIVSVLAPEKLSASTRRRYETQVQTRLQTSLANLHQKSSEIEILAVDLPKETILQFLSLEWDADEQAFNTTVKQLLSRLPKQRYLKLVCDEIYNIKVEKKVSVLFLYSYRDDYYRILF
Sequence of PERK kinase (Q9NZJ5 other isoform, or with tags, fused parts or gaps): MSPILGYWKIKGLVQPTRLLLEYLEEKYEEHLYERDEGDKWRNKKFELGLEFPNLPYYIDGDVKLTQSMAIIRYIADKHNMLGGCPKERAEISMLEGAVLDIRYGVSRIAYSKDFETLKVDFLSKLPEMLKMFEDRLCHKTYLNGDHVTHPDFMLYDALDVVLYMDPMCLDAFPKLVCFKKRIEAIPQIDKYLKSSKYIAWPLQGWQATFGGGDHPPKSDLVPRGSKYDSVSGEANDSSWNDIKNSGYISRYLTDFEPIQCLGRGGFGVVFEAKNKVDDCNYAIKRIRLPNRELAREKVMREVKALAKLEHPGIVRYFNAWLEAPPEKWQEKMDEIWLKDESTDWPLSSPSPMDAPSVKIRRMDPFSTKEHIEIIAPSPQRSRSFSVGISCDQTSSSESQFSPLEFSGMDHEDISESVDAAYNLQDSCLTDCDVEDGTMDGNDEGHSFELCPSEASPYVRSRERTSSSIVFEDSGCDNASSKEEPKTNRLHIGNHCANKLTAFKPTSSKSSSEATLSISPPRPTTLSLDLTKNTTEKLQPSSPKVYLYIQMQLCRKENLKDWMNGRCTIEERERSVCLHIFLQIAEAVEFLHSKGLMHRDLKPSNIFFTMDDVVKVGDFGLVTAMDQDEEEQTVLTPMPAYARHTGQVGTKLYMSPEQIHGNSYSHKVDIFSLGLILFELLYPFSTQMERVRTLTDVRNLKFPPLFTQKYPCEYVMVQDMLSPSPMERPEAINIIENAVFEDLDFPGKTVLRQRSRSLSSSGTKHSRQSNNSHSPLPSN

Compound | IC50 (PERK kinase) [nM] | IC50 [1] [nM] | IC50 (CCRF-CEM leukemia cells) [nM] | IC50 [2] [nM] | IC50 (GCN2 kinase) [nM] | IC50 [3] [nM]
CNc1ncc2cc(-c3cccc(NS(=O)(=O)c4cc(Cl)cnc4OC)c3F)c(C)nc2n1 [Example 3, 5-chloro-N-(2-fluoro-3-(7-methyl-2-(methylamino)pyrido[2,3-d]pyrimidin-6-yl)phenyl)-2-methoxypyridine-3-sulfonamide] | ≤ 100 | ≤ 100 | ≤ 100 | ≤ 100 | ≤ 100 | 
CNc1cc2ncc(-c3cccc(NS(=O)(=O)c4cc(Cl)cc(CO)c4Cl)c3F)cc2cn1 [Example 4, 2,5-dichloro-N-(2-fluoro-3-(7-(methylamino)-1,6-naphthyridin-3-yl)phenyl)-3-(hydroxymethyl)benzenesulfonamide] | ≤ 100 |  | 1000 to 10000 |  | ≤ 100 | ≤ 100
CNc1ncc2cc(-c3cc(F)cc(NS(=O)(=O)c4cc(Cl)cnc4OC)c3)c(NC)nc2n1 [Example 11] | 100 to 500 | ≤ 100 | 100 to 500 | ≤ 100 | ≤ 100 | 1000 to 10000
CNc1cc2nc(C)c(-c3cc(NS(=O)(=O)c4cc(Cl)cc(CO)c4Cl)c(F)cc3Br)cc2cn1 [Example 14] | 100 to 500 | 100 to 500 | 1000 to 10000 | 500 to 1000 | ≤ 100 | 1000 to 10000
CNc1ncc2cc(-c3cccc(NS(=O)(=O)c4cc(Cl)cnc4OC)c3)c(NC)nc2n1 [Example 15] | 100 to 500 | ≤ 100 | 100 to 500 | 100 to 500 | ≤ 100 | 
CNc1ncc2cc(-c3cc(NS(=O)(=O)c4cc(Cl)cnc4OC)c(F)cc3C)c(C)nc2n1 [Example 17] | 100 to 500 | 100 to 500 | 1000 to 10000 | 1000 to 10000 | 500 to 1000 | 1000 to 10000
CNc1cc2nc(C)c(-c3ccc(F)c(NS(=O)(=O)c4cc(Cl)cc(CO)c4Cl)c3)cc2cn1 [Example 19] | ≤ 100 | ≤ 100 | 100 to 500 | ≤ 100 | ≤ 100 | 1000 to 10000
CNc1cc2nc(C)c(-c3cc(NS(=O)(=O)c4cc(Cl)cc(CO)c4Cl)c(F)cc3F)cc2cn1 [Example 22] | ≤ 100 | ≤ 100 | ≤ 100 | ≤ 100 | ≤ 100 | 1000 to 10000
CNc1ncc2cc(-c3cc(F)cc(NS(=O)(=O)c4cc(Cl)cnc4OC)c3)c(C)nc2n1 [Example 65] | 100 to 500 | ≤ 100 | 100 to 500 | 100 to 500 |  | 1000 to 10000
CNc1ncc2cc(-c3cccc(NS(=O)(=O)c4cc(Cl)cnc4OC)c3F)c(OC)cc2n1 [Example 159] | ≤ 100 |  | ≤ 100 |  | ≤ 100 | 500 to 1000
CNc1cnc(OC)c(S(=O)(=O)Nc2cccc(-c3cc4cnc(NC)cc4nc3C)c2F)c1 [Example 162] | 100 to 500 |  | ≤ 100 |  | ≤ 100 | 
CNc1nc2nc(NC(C)=O)ncc2cc1-c1cc(F)cc(NS(=O)(=O)c2cc(Cl)cnc2OC)c1 [Example 164] | 100 to 500 |  | 100 to 500 |  | ≤ 100 | 1000 to 10000
COc1nc2nc(N)ncc2cc1-c1cccc(NS(=O)(=O)c2cc(Cl)cnc2OC)c1F [Example 165] | ≤ 100 |  | ≤ 100 |  | ≤ 100 | 1000 to 10000
CNc1ncc2cc(-c3cccc(NS(=O)(=O)c4ncccc4OC)c3F)c(NC)nc2n1 [Example 166] | 1000 to 10000 |  |  |  | 1000 to 10000 | 
COc1cc2nc(N)ncc2cc1-c1cccc(NS(=O)(=O)c2cc(Cl)cc(CO)c2Cl)c1F [Example 167] | ≤ 100 |  | ≤ 100 |  | ≤ 100 | ≤ 100
CNc1ncc2cc(-c3cccc(NS(=O)(=O)c4cc(OC)ccc4Cl)c3F)c(NC)nc2n1 [Example 168] | ≤ 100 |  | 100 to 500 |  | ≤ 100 | 1000 to 10000
CNc1ncc2cc(-c3cccc(NS(=O)(=O)c4cc(Br)cnc4OC)c3F)c(NC)nc2n1 [Example 169] | 100 to 500 |  |  |  | ≤ 100 | 
CNC(=O)c1cc(Cl)cc(S(=O)(=O)Nc2cccc(-c3cc4cnc(NC)nc4nc3NC)c2F)c1Cl [Example 170] | 1000 to 10000 |  |  |  | 1000 to 10000 | 
CNc1cc2nc(N)c(-c3cccc(NS(=O)(=O)c4cc(Cl)cc(CO)c4Cl)c3F)cc2cn1 [Example 171] |  |  | ≤ 100 |  |  | ≤ 100
CNc1ncc2cc(-c3cccc(NS(=O)(=O)c4cc(Cl)cc(CO)c4F)c3F)c(NC)nc2n1 [Example 176] | ≤ 100 |  | ≤ 100 |  | ≤ 100 | 1000 to 10000
CNc1ncc2cc(-c3cccc(NS(=O)(=O)c4cc(F)cc(CO)c4Cl)c3F)c(NC)nc2n1 [Example 177] | 100 to 500 |  | ≤ 100 |  | ≤ 100 | 100 to 500
CNc1ncc2cc(-c3cccc(NS(=O)(=O)c4cc(F)cc(CO)c4F)c3F)c(NC)nc2n1 [Example 178] | 100 to 500 |  | ≤ 100 |  | ≤ 100 | 1000 to 10000
